In brackets after ≈: the same amount, converted by molar mass. Like-named read-outs stand apart in the source and are kept apart here.
Columns and labels:
Klebsiella pneumonias = assay: MIC in nutrient agar, Klebsiella pneumonias; assay type: cell-based, Klebsiella pneumonias (ATCC 8308); details: Kp, 48 hours, read-out: Minimum Inhibitory Concentration (MIC)
Description: (§1) The minimum inhibitory concentration (MIC) for the compounds listed in Table I is determined for bacteria, using nutrient agar, and 7 yeast and fungi, using malt yeast agar. A one percent solution of the test compound is prepared in a mixture of acetone and water.
(§2) Nutrient agar is prepared at pH 6.8, representing a neutral medium, and at pH 8.2, representing an alkaline medium. The nutrient agars are prepared by adding 23 g of nutrient agar to one-liter of deionized water. In addition, the alkaline medium is prepared by adjusting a 0.04M solution of N-(tris-(hydroxymethyl)methyl)glycine buffered deionized water with concentrated sodium hydroxide to a pH of 8.5.
(§3) The test tubes containing the agar are cooled in a water bath until the temperature of the agar is 48° C. Then, an appropriate amount of the one percent solution of the test compound is added (except in the controls where no compound is added) to the respective test tubes so that the final concentrations are 500, 250, 100, 50, 25, 10, 2.5, 1.0 and zero parts per million of the test compound in the agar, thus having a known concentration of test compound dispersed therein. The contents of the test tubes are then transferred to respective petri plates. After drying for 24 hours, the petri plates containing nutrient agar are inoculated with bacteria and those containing malt yeast agar are inoculated with yeast and fungi.
(§4) The inoculation with bacteria is accomplished by using the following procedure. Twenty-four hour-cultures of each of the bacteria are prepared by incubating the respective bacteria in tubes containing nutrient broth for 24 hours at 30° C. in a shaker. Dilutions of each of the 24 hour-cultures are made so that nine separate suspensions (one for each of the nine test bacteria) are made, each containing 10^8 colony forming units (CFU) per mL of suspension of a particular bacteria. Aliquots of 0.3 mL of each of the bacterial suspensions are used to fill the individual wells of Steer's Replicator. For each microbial suspension, 0.3 mL was used to fill three wells (i.e., three wells of 0.3 mL each) so that for the nine different bacteria, 27 wells are filled. The Steer's Replicator is then used to inoculate both the neutral and alkaline pH nutrient agar petri plates.
(§5) The inoculated petri plates are incubated at 30° C. for 48 hours and then read to determine if the test compound which is incorporated into the agar prevented growth of the respective bacteria.
(§6) Table II lists the bacteria, yeast and fungi used in the MIC test described above along with their respective American Type Culture Collection (ATCC) identification numbers.
(§7) In Tables III and IV, the MIC values of the compounds described in Table I as compared to the MIC of a standard commercial preservative (with 1-(3-chloroalkyl)-3,5,7-triaza-1-azoniaadamantane chloride as the active agent and referred to in Tables III and IV as "STANDARD I") are set forth for the bacteria organisms and yeast/fungi organisms which are listed in Table II.

Proteus vulgaris = assay: MIC in nutrient agar, Proteus vulgaris; assay type: cell-based, Proteus vulgaris (ATCC 881); details: Pv, 48 hours, read-out: Minimum Inhibitory Concentration (MIC)
Description: as §1, §2, §3, §4, §5, §6, §7

Staphylococcus aureus = assay: MIC in nutrient agar, Staphylococcus aureus; assay type: cell-based, Staphylococcus aureus (ATCC 6538); details: Sa, 48 hours, read-out: Minimum Inhibitory Concentration (MIC)
Description: as §1, §2, §3, §4, §5, §6, §7

Penicillium chrysogenum = assay: MIC in malt yeast agar, Penicillium chrysogenum; assay type: cell-based, Penicillium chrysogenum (ATCC 9480); details: Pc; malt yeast agar; 30° C.; 72 hours for fungi; read-out: Minimum Inhibitory Concentration (MIC)
Description: as §1
(§8) Malt yeast agar is prepared by adding 3 g yeast extract and 45 g malt agar per liter of deionized water. The specific agar is dispensed in 30 mL aliquots into 25×200 mm test tubes, capped and autoclaved for 15 minutes at 115° C.
as §3
(§9) The inoculation with the yeast and fungi is accomplished as follows. Cultures of yeast and fungi are incubated for seven days on malt yeast agar at 30° C. These cultures are used to prepare suspensions by the following procedure. A suspension of each organism is prepared by adding 10 mL of sterile saline and 10 microliters of octylphenoxy polyethoxy ethanol to the agar slant of yeast or fungi. The sterile saline/octylphenoxy polyethoxy ethanol solution is then agitated with a sterile swab to suspend the microorganism grown on the slant. Each resulting suspension is diluted into sterile saline (1 part suspension: 9 parts sterile saline). Aliquots of these dilutions are placed in individual wells of Steer's Replicator and petri plates inoculated as previously described. The petri plates are incubated at 30° C. and read after 48 hours for yeast and 72 hours for fungi.
as §6, §7

Saccharomyces cerevisiae = assay: MIC in malt yeast agar, Saccharomyces cerevisiae; assay type: cell-based, Saccharomyces cerevisiae (ATCC 4105); details: Sc, malt yeast agar, 30° C., 48 hours for yeast, read-out: Minimum Inhibitory Concentration (MIC)
Description: as §1, §8, §3, §9, §6, §7

Trichoderma viride = assay: MIC in malt yeast agar, Trichoderma viride; assay type: cell-based, Trichoderma viride (ATCC 8678); details: Tv; malt yeast agar; 30° C.; 72 hours for fungi; read-out: Minimum Inhibitory Concentration (MIC)
Description: as §1, §8, §3, §9, §6, §7

marine organisms = assay: Marine antifouling test on coated panels; details: scale 10 (completely free of marine organism growth) to 0 (completely covered)
Description: Test panels are prepared from clear, rigid polyvinyl chloride film that is 0.381×10^-3 m thick and has one textured surface. The test panels are 0.1524 m by 0.1524 m squares that have 0.00635 m holes punched at corners on 0.127 m centers. A 0.102 square template, with a 0.067 m diameter hole at the center, is attached to the center of the textured surface of the test panels.
A candidate marine antifoulant compound (1.0 g) is stirred into a resinous latex binder (9.0 g). A portion of the compound/binder mixture (1.5 g, is added to the center of the test panel and uniformly spread over the circular area inside the template.
Water is added dropwise as needed to properly spread the compound/binder mixture. The template prevents the compound/binder mixture from spreading beyond the uncovered area. […] The template is then removed. The test panel is then allowed to dry for 8 to 12 hours at room temperature.
Two test panels are prepared for each candidate marine antifoulant compound. Two control test panels are also prepared by only treating with the resinous latex binder. One test panel of each candidate marine […] compound is attached over a white background to the topside of an exposure support apparatus. The second test panel is attached over a black background to the underside of the exposure support apparatus. The exposure support apparatus is placed horizontally 0.0254 m under a marine surface with the white background topside facing up.
After being removed from the exposure support apparatus, each test panel is inspected and rated for marine organism growth on both the treated and untreated areas of the test panel. The marine organisms present on the treated and untreated areas are noted. The presence of algae spores and bacterial slime are noted but not included in rating each test panel. The test panels are rated on a scale from 10 (representing completely free of marine organism growth) to 0 (representing completely covered with marine organism growth).
In addition, test panels were prepared using tributyl tin oxide, a known marine antifouling compound.

MIC (Klebsiella pneumonias; pH 6.8, 30° C.) | MIC (Klebsiella pneumonias; pH 8.2, 30° C.) | MIC (Proteus vulgaris; pH 6.8, 30° C.) | MIC (Proteus vulgaris; pH 8.2, 30° C.) | MIC (Staphylococcus aureus; pH 6.8, 30° C.) | MIC (Staphylococcus aureus; pH 8.2, 30° C.) | MIC (Penicillium chrysogenum) | MIC (Saccharomyces cerevisiae) | MIC (Trichoderma viride) | Compound | Marine Antifouling Rating (marine organisms; 10 Week Test, Bottom Panel) | Marine Antifouling Rating (marine organisms; 10 Week Test, Top Panel) | Marine Antifouling Rating (marine organisms; 20 Week Test, Bottom Panel) | Marine Antifouling Rating (marine organisms; 20 Week Test, Top Panel)
25 µg/mL (≈ 125 µM) | 250 µg/mL (≈ 1250 µM) | 25 µg/mL (≈ 125 µM) | 100 µg/mL (≈ 499 µM) | 25 µg/mL (≈ 125 µM) | 100 µg/mL (≈ 499 µM) | < 1 µg/mL | 5 µg/mL (≈ 25 µM) | 5 µg/mL (≈ 25 µM) | N#CSc1nsnc1SC#N [Example 2, Bis(thiocyanato)-1,2,5-thiadiazole] | 9 | 9 | 7 | 2
< 10 µg/mL | < 10 µg/mL | < 10 µg/mL | < 10 µg/mL | < 10 µg/mL | < 10 µg/mL | < 2.5 µg/mL | < 2.5 µg/mL | 10 µg/mL (≈ 34.2 µM) | N#CSCSc1nsnc1SCSC#N [Example 4, Bis(thiomethylthiocyanato)-1,2,5-thiadiazole] | 9 | 9 | 5 | 7

From patent US5491155A, “Substituted thiadiazoles, compositions containing them and their use as antimicrobial and marine antifouling agents” (The Dow Chemical Company, priority 1994, dated 1996)
